± gives the standard deviation of the averaged measurements.
These compounds were tested on HL-60 (assay: cell viability (% survival relative to DMSO control); higher = less cytotoxic). Conditions: 0.1 µM; 72 h; co-treatment: DMSO vehicle.
Outline: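 HL-60 cells grown in RPMI 1640 with 10% FBS were rescreened against the full library in 384-well plates, in duplicate, at five tenfold concentrations from 1 to 10,000 nM, alongside DMSO or 100 nM of one of three metabolic inhibitors for 72 h at 37 °C, 5% CO2. Reference wells contained DMSO or 10 μM proteasome inhibitor. Viability was read with CellTiter-Glo and normalised to these reference wells, and where reported, area under the curve was taken from four-parameter log-logistic fits in drc and PharmacoGx.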

| Structure (SMILES) | cell viability |
| --- | --- |
| NC(CCC(=O)NC(CSCc1ccc(Br)cc1)C(=O)NCC(=O)OC1CCCC1)C(=O)OC1CCCC1 (stereo not given) [S-para-Bromobenzylglutathione cyclopentyl diester] | 106 ± 1.5% |
| COc1cc(C2Oc3cc(C4Oc5cc(O)cc(O)c5C(=O)C4O)ccc3OC2CO)ccc1O (stereo not given) [Silibinin] | 104 ± 4.8% |
| Fc1ccc(CNc2ncnc3ccc(F)cc23)cc1 [Spautin 1] | 109 ± 1.2% |
| Cn1c2cc(S(C)=O)sc2c2cnn(Cc3cccc(N)c3)c(=O)c21 (stereo not given) [TEPP-46] | 104 ± 1.1% |
| CCCCCCCCCCCCCCOc1ccc(C(=O)O)o1 [TOFA] | 98.8 ± 3% |
| CN1CC(=O)N2[C@H](c3ccc4c(c3)OCO4)c3[nH]c4ccccc4c3C[C@@H]2C1=O [Tadalafil] | 98 ± 8.3% |

Same assay, conditions: 0.1 µM; 72 h; co-treatment: GSK2194069 100 nM

| Structure (SMILES) | cell viability |
| --- | --- |
| CC(C)(F)C[C@H](N[C@@H](c1ccc(-c2ccc(S(C)(=O)=O)cc2)cc1)C(F)(F)F)C(=O)NC1(C#N)CC1 [Odanacatib] | 97.1 ± 2.8% |
| Nc1nc(O)c2c(CCc3ccc(C(=O)N[C@@H](CCC(=O)O)C(=O)O)cc3)c[nH]c2n1 [Pemetrexed] | 122 ± 25% |
| C=C1NC(=O)c2cc(CN(C)c3ccc(C(=O)N[C@@H](CCC(=O)O)C(=O)O)s3)ccc2N1 [Raltitrexed] | 53.7 ± 6.4% |
| CNC(=C[N+](=O)[O-])NCCSCc1ccc(CN(C)C)o1 [Ranitidine] | 108 ± 12% |
| C#CCN[C@@H]1CCc2ccccc21 [Rasagiline] | 100 ± 6.3% |
| NC(CCC(=O)NC(CSCc1ccc(Br)cc1)C(=O)NCC(=O)OC1CCCC1)C(=O)OC1CCCC1 (stereo not given) [S-para-Bromobenzylglutathione cyclopentyl diester] | 110 ± 5.5% |
| COc1cc(C2Oc3cc(C4Oc5cc(O)cc(O)c5C(=O)C4O)ccc3OC2CO)ccc1O (stereo not given) [Silibinin] | 105 ± 9.5% |
| Fc1ccc(CNc2ncnc3ccc(F)cc23)cc1 [Spautin 1] | 104 ± 8.1% |
| Cn1c2cc(S(C)=O)sc2c2cnn(Cc3cccc(N)c3)c(=O)c21 (stereo not given) [TEPP-46] | 97.1 ± 18% |
| CCCCCCCCCCCCCCOc1ccc(C(=O)O)o1 [TOFA] | 84.6 ± 29% |
| CN1CC(=O)N2[C@H](c3ccc4c(c3)OCO4)c3[nH]c4ccccc4c3C[C@@H]2C1=O [Tadalafil] | 102 ± 1.4% |

Same assay, conditions: 0.1 µM; 72 h; co-treatment: pictilisib 100 nM

| Structure (SMILES) | cell viability |
| --- | --- |
| CC(C)(F)C[C@H](N[C@@H](c1ccc(-c2ccc(S(C)(=O)=O)cc2)cc1)C(F)(F)F)C(=O)NC1(C#N)CC1 [Odanacatib] | 94.9 ± 22% |
| Nc1nc(O)c2c(CCc3ccc(C(=O)N[C@@H](CCC(=O)O)C(=O)O)cc3)c[nH]c2n1 [Pemetrexed] | 121 ± 20% |
| C=C1NC(=O)c2cc(CN(C)c3ccc(C(=O)N[C@@H](CCC(=O)O)C(=O)O)s3)ccc2N1 [Raltitrexed] | 51.8 ± 1.8% |
| CNC(=C[N+](=O)[O-])NCCSCc1ccc(CN(C)C)o1 [Ranitidine] | 98.5 ± 5.1% |
| C#CCN[C@@H]1CCc2ccccc21 [Rasagiline] | 103 ± 14% |
| NC(CCC(=O)NC(CSCc1ccc(Br)cc1)C(=O)NCC(=O)OC1CCCC1)C(=O)OC1CCCC1 (stereo not given) [S-para-Bromobenzylglutathione cyclopentyl diester] | 113 ± 9.7% |
| COc1cc(C2Oc3cc(C4Oc5cc(O)cc(O)c5C(=O)C4O)ccc3OC2CO)ccc1O (stereo not given) [Silibinin] | 107 ± 12% |
| Fc1ccc(CNc2ncnc3ccc(F)cc23)cc1 [Spautin 1] | 108 ± 16% |
| Cn1c2cc(S(C)=O)sc2c2cnn(Cc3cccc(N)c3)c(=O)c21 (stereo not given) [TEPP-46] | 112 ± 6% |
| CCCCCCCCCCCCCCOc1ccc(C(=O)O)o1 [TOFA] | 94.5 ± 3.8% |
| CN1CC(=O)N2[C@H](c3ccc4c(c3)OCO4)c3[nH]c4ccccc4c3C[C@@H]2C1=O [Tadalafil] | 96.9 ± 3.5% |

Same assay, conditions: 1 µM; 72 h; co-treatment: AZD3965 100 nM

| Structure (SMILES) | cell viability |
| --- | --- |
| CC(C)(F)C[C@H](N[C@@H](c1ccc(-c2ccc(S(C)(=O)=O)cc2)cc1)C(F)(F)F)C(=O)NC1(C#N)CC1 [Odanacatib] | 96.26 ± 0.29% |
| Nc1nc(O)c2c(CCc3ccc(C(=O)N[C@@H](CCC(=O)O)C(=O)O)cc3)c[nH]c2n1 [Pemetrexed] | 41.5 ± 2% |
| C=C1NC(=O)c2cc(CN(C)c3ccc(C(=O)N[C@@H](CCC(=O)O)C(=O)O)s3)ccc2N1 [Raltitrexed] | 25.7 ± 1.2% |
| CNC(=C[N+](=O)[O-])NCCSCc1ccc(CN(C)C)o1 [Ranitidine] | 107 ± 8.7% |
| C#CCN[C@@H]1CCc2ccccc21 [Rasagiline] | 97.1 ± 1.7% |
| NC(CCC(=O)NC(CSCc1ccc(Br)cc1)C(=O)NCC(=O)OC1CCCC1)C(=O)OC1CCCC1 (stereo not given) [S-para-Bromobenzylglutathione cyclopentyl diester] | 91.1 ± 10% |
| COc1cc(C2Oc3cc(C4Oc5cc(O)cc(O)c5C(=O)C4O)ccc3OC2CO)ccc1O (stereo not given) [Silibinin] | 102 ± 2.4% |
| Fc1ccc(CNc2ncnc3ccc(F)cc23)cc1 [Spautin 1] | 103 ± 2.2% |
| Cn1c2cc(S(C)=O)sc2c2cnn(Cc3cccc(N)c3)c(=O)c21 (stereo not given) [TEPP-46] | 102 ± 1.3% |
| CCCCCCCCCCCCCCOc1ccc(C(=O)O)o1 [TOFA] | 97.5 ± 1.2% |
| CN1CC(=O)N2[C@H](c3ccc4c(c3)OCO4)c3[nH]c4ccccc4c3C[C@@H]2C1=O [Tadalafil] | 104 ± 1.3% |

Same assay, conditions: 1 µM; 72 h; co-treatment: DMSO vehicle

| Structure (SMILES) | cell viability |
| --- | --- |
| CC(C)(F)C[C@H](N[C@@H](c1ccc(-c2ccc(S(C)(=O)=O)cc2)cc1)C(F)(F)F)C(=O)NC1(C#N)CC1 [Odanacatib] | 95 ± 8.3% |
| Nc1nc(O)c2c(CCc3ccc(C(=O)N[C@@H](CCC(=O)O)C(=O)O)cc3)c[nH]c2n1 [Pemetrexed] | 43.8 ± 6.4% |
| C=C1NC(=O)c2cc(CN(C)c3ccc(C(=O)N[C@@H](CCC(=O)O)C(=O)O)s3)ccc2N1 [Raltitrexed] | 31.6 ± 6.8% |
| CNC(=C[N+](=O)[O-])NCCSCc1ccc(CN(C)C)o1 [Ranitidine] | 106.4 ± 0.2% |
| C#CCN[C@@H]1CCc2ccccc21 [Rasagiline] | 100.1 ± 0.11% |
| NC(CCC(=O)NC(CSCc1ccc(Br)cc1)C(=O)NCC(=O)OC1CCCC1)C(=O)OC1CCCC1 (stereo not given) [S-para-Bromobenzylglutathione cyclopentyl diester] | 97.4 ± 3% |
| COc1cc(C2Oc3cc(C4Oc5cc(O)cc(O)c5C(=O)C4O)ccc3OC2CO)ccc1O (stereo not given) [Silibinin] | 102 ± 4.2% |
| Fc1ccc(CNc2ncnc3ccc(F)cc23)cc1 [Spautin 1] | 96.7 ± 8% |
| Cn1c2cc(S(C)=O)sc2c2cnn(Cc3cccc(N)c3)c(=O)c21 (stereo not given) [TEPP-46] | 104 ± 1.1% |
| CCCCCCCCCCCCCCOc1ccc(C(=O)O)o1 [TOFA] | 98.5 ± 2.7% |
| CN1CC(=O)N2[C@H](c3ccc4c(c3)OCO4)c3[nH]c4ccccc4c3C[C@@H]2C1=O [Tadalafil] | 100 ± 1.4% |

Same assay, conditions: 1 µM; 72 h; co-treatment: GSK2194069 100 nM

| Structure (SMILES) | cell viability |
| --- | --- |
| CC(C)(F)C[C@H](N[C@@H](c1ccc(-c2ccc(S(C)(=O)=O)cc2)cc1)C(F)(F)F)C(=O)NC1(C#N)CC1 [Odanacatib] | 90 ± 7.7% |
| Nc1nc(O)c2c(CCc3ccc(C(=O)N[C@@H](CCC(=O)O)C(=O)O)cc3)c[nH]c2n1 [Pemetrexed] | 40.1 ± 12% |
| C=C1NC(=O)c2cc(CN(C)c3ccc(C(=O)N[C@@H](CCC(=O)O)C(=O)O)s3)ccc2N1 [Raltitrexed] | 30.6 ± 6.8% |
| CNC(=C[N+](=O)[O-])NCCSCc1ccc(CN(C)C)o1 [Ranitidine] | 106 ± 12% |
| C#CCN[C@@H]1CCc2ccccc21 [Rasagiline] | 102 ± 6.4% |
| NC(CCC(=O)NC(CSCc1ccc(Br)cc1)C(=O)NCC(=O)OC1CCCC1)C(=O)OC1CCCC1 (stereo not given) [S-para-Bromobenzylglutathione cyclopentyl diester] | 95 ± 9.2% |
| COc1cc(C2Oc3cc(C4Oc5cc(O)cc(O)c5C(=O)C4O)ccc3OC2CO)ccc1O (stereo not given) [Silibinin] | 105 ± 2.2% |
| Fc1ccc(CNc2ncnc3ccc(F)cc23)cc1 [Spautin 1] | 89.5 ± 8.1% |
| Cn1c2cc(S(C)=O)sc2c2cnn(Cc3cccc(N)c3)c(=O)c21 (stereo not given) [TEPP-46] | 104 ± 7% |
| CCCCCCCCCCCCCCOc1ccc(C(=O)O)o1 [TOFA] | 95.9 ± 13% |
| CN1CC(=O)N2[C@H](c3ccc4c(c3)OCO4)c3[nH]c4ccccc4c3C[C@@H]2C1=O [Tadalafil] | 105 ± 1.2% |

Same assay, conditions: 1 µM; 72 h; co-treatment: pictilisib 100 nM

| Structure (SMILES) | cell viability |
| --- | --- |
| CC(C)(F)C[C@H](N[C@@H](c1ccc(-c2ccc(S(C)(=O)=O)cc2)cc1)C(F)(F)F)C(=O)NC1(C#N)CC1 [Odanacatib] | 96.43 ± 0.2% |
| Nc1nc(O)c2c(CCc3ccc(C(=O)N[C@@H](CCC(=O)O)C(=O)O)cc3)c[nH]c2n1 [Pemetrexed] | 47.2 ± 3.1% |
| C=C1NC(=O)c2cc(CN(C)c3ccc(C(=O)N[C@@H](CCC(=O)O)C(=O)O)s3)ccc2N1 [Raltitrexed] | 34.2 ± 6.4% |
| CNC(=C[N+](=O)[O-])NCCSCc1ccc(CN(C)C)o1 [Ranitidine] | 110 ± 11% |
